Earlier results as cited in patent publication US20050287214A1, “Squeeze controlled oral dosage form” (priority 2004, published 2005).

Details: solubility of the active agent as stated in the formulation tables; no method given

- solubility: Ranitidine (solubility = 880 mg/ml)
SMILES: CNC(=C[N+](=O)[O-])NCCSCc1ccc(CN(C)C)o1 [Ranitidine]
